In patent US20110319384A1, “Pharmaceutical Compositions” (priority 2005, published 2011):
Like-named read-outs stand apart in the source and are kept apart here.

Experiments:
patients with GAD = conditions: hypothesis to be tested
[1] = test system: outpatient adults with SRI-resistant OCD
[2] = test system: patients with residual anxiety and depression despite SSRI treatment
[3] = test system: non-depressed patients with GAD; conditions: for change from baseline in HAM-A total score, observed case analysis: significant
[4] = test system: patients with Social Anxiety Disorder (SAD)
[5] = test system: patients with treatment resistant or non-remitted GAD
[6] = adjunct to conventional therapy
[7] = adjunct to conventional therapy, mean dose 386 mg/day

- BARS or SAS scores ([2]; in vivo): no clinically relevant changes
- weight gain ([2]; in vivo): minimal for all patients but one
- AIMS, SAS, or BARS scores versus placebo ([3]; in vivo): no statistically significant differences
- mean total weight gain and BMI ([5]; baseline to Week 12): slight increases
Compound: OCCOCCN1CCN(C2=Nc3ccccc3Sc3ccccc32)CC1 [quetiapine, 11-[4-[2-(2-hydroxyethoxy)ethyl]-1-piperazinyl]-dibenzo[b,f][1,4]thiazepine]
- Somnolence: severity of AEs, time of first instance, withdrawals due to AE of somnolence (patients with GAD; compared to placebo): generally mild, occurs early in
- Change from randomization in MADRS total score at Day 57 (patients with GAD; depressive symptoms in GAD, vs placebo): Quetiapine is more effective
- Adverse events related to discontinuation; change in Discontinuation-Emergent Signs and Symptoms total score at Day 64 and Day 71 (patients with GAD; discontinuation symptoms): Quetiapine does not have
- Change from normal to Clinically Important in Physical Examinations; Laboratory values; Vital signs; ECGs (patients with GAD; once daily up to 300 mg/day): 300 mg/day is safe and well
- Change from randomization in Q-les-Q Item 15 (Satisfaction with medication) at Day 57 (patients with GAD; patient satisfaction, vs placebo): Quetiapine is more effective
- Change from randomization in HAM-A total score, HAM-A psychic cluster, HAM-A somatic cluster and CGI-S score at Day 8 (patients with GAD; patients with GAD, Day 8): anti-anxiety effect by Day 8
- Change from randomization in Q-les-Q total score and Q-les-Q Item 16 (Overall life satisfaction) at Day 57 (patients with GAD; quality of life, vs placebo): Quetiapine is more effective
- HAM-A Response (decrease from randomization total score of ≧50%) at Day 8 (patients with GAD; response rate vs placebo, Day 8): Quetiapine has a greater
- HAM-A Response (decrease from randomization total score of ≧50%) at Day 57 (patients with GAD; response rate vs placebo, Day 57): Quetiapine has a greater
- Adverse events of nausea or vomiting (patients with GAD; vs placebo): placebo levels of nausea and
- Adverse events related to EPS (including akathisia); change in SAS and BARS scores at Day 57 (patients with GAD; vs placebo): placebo levels of EPS
- HAM-A Remission (HAM-A total score ≦7) at Day 57 (patients with GAD; vs placebo, Day 57): Quetiapine is better than
- Change from randomization in CGI-S score, CGI-I (much or very much improved), HAM-A psychic cluster and HAMA somatic cluster at Day 57 (patients with GAD; vs placebo, across anxiety symptoms, Day 57): Quetiapine is more effective
- mean MADRS score at baseline ([1]; added to SRI): about 19
- mean MADRS score at trial end ([1]; added to SRI): about 15
- mean Y-BOCS score at baseline, the 5 patients that responded ([1]; added to SRI): about 30
- mean Y-BOCS score after treatment, the 5 patients that responded ([1]; added to SRI, 8 weeks): about 17
- patients who responded to treatment (≧25% decrease in Y-BOCS score at endpoint) ([1]; added to SRI, final mean dosage about 169 mg/day): Five of the 16
- most common adverse events ([1]; in vivo): Sedation and fatigue
- patients who withdrew because of an adverse event ([1]; in vivo): 1 patient
- severity of adverse events ([1]; in vivo): generally mild
- mean HAM-A score after 9 weeks of treatment ([2]; added to stable SSRI): about 6
- mean HAM-A score at baseline ([2]; added to stable SSRI): about 25
- mean HAM-D score after 9 weeks of treatment ([2]; added to stable SSRI): about 6
- mean HAM-D score at baseline ([2]; added to stable SSRI): about 20
- mean State Anxiety Inventory (SAI) score after 9 weeks of treatment ([2]; added to stable SSRI): about 30
- mean State Anxiety Inventory (SAI) score at baseline ([2]; added to stable SSRI): about 51
- discontinuation as a result of an adverse event ([2]; in vivo): no patient discontinued therapy
- most common side effects ([2]; in vivo): Drowsiness, mild dry mouth, and constipation
- reduction in scores, HAM-A individual subjects analysis ([2]; in vivo): ≥ 50%
- serious adverse events ([2]; in vivo): No serious adverse events occurred
- reduction in HAM-A psychic anxiety subscale, observed cases ([3]; Week 2, placebo −3.0): −6.6
- change from baseline in HAM-A total score, observed case analysis ([3]; Week 2, placebo −5.9): −11.1
- reduction in HAM-A psychic anxiety subscale, observed cases ([3]; Week 4, placebo −4.0): −7.8
- change from baseline in HAM-A total score, observed case analysis ([3]; Week 4, placebo −8.6): −13.7
- mean decrease from baseline in HAM-A total score ([3]; baseline to week 6, ITT, LOCF, placebo about 9, difference not significant, mean dose 125 mg/day): about 12
- tolerability ([3]; in vivo): generally well tolerated
- patients who discontinued treatment because of AEs ([3]; of 19 in the group): Five
- remission rate at endpoint (HAM-A total score ≦7) ([3]; placebo 21.1%, not statistically significant): 42.1%
- response rate at endpoint (≧50% reduction in HAM-A total score) ([3]; placebo 36.8%, not statistically significant): 57.9%
- reduction from baseline on the CGI-S ([3]; placebo −1.05): −1.37
- reduction from baseline on the Hospital Anxiety and Depression (HAD) anxiety subscale ([3]; placebo −3.16): −3.79
- reduction from baseline on the HAM-A somatic subscale ([3]; placebo −4.4): −5.2
- BSPS scores versus placebo at baseline or endpoint ([4]; in vivo): no significant differences
- SPIN or SDI scores versus placebo at baseline or endpoint ([4]; in vivo): no significant difference
- mean CGI-I scores at endpoint versus placebo ([4]; in vivo): no significant difference
- most frequent side effects ([4]; in vivo): drowsiness, dizziness, and nausea
- serious adverse events ([4]; in vivo): No serious adverse events were reported
- patients who scored a 1 or 2 on the CGI-I scale ([4]; placebo 0%): 40%
- patients experiencing a ≧50% drop in BSPS score at endpoint compared with baseline ([4]; placebo 0%, mean final dose 147 mg twice a day): 20%
- Dysfunctional Beliefs and Attitudes about Sleep Scale (DBAS) mean at Week 12 [5, 6]: about 73
- Dysfunctional Beliefs and Attitudes about Sleep Scale (DBAS) mean at baseline [5, 6]: about 88
- PSQI (sleep quality) baseline mean [5, 6]: about 17
- PSQI (sleep quality) mean in Week 12 [5, 6]: about 7
- Penn State Worry Questionnaire (PSWQ) mean at Week 12 [5, 6]: about 44
- Penn State Worry Questionnaire (PSWQ) mean at baseline [5, 6]: about 53
- mean HAM-A total score after 12 weeks of treatment [5, 7]: about 9
- mean HAM-A total score at baseline [5, 7]: about 30
- improvement in mean Sheehan Disability Inventory (SDI) scores (work, family, social interactions) ([5]; baseline to Week 12): about 2
- patients who entered the study reporting sedation as an adverse event ([5]; in vivo): Forty
